Results published in PMC9154192 (PLoS Biology, 2022).
Values after ≈ are worked out from the molar mass of the structure shown. Like-named read-outs stand apart in the source and are kept apart here.

Assays:
M. tuberculosis H37Rv = assay: microbe, parasite or virus in culture; format: cell-based, Mycobacterium tuberculosis
[1] = tested on: clinically isolated MDR, XDR, and TDR M. tuberculosis strains; assay: microbe, parasite or virus in culture; format: cell-based; settings: Mycobacterium tuberculosis
M. abscessus = assay: microbe, parasite or virus in culture; format: cell-based, Mycobacterium abscessus; settings: Mycobacteroides abscessus
M. arupense = assay: microbe, parasite or virus in culture; format: cell-based, Mycobacterium arupense; settings: Mycolicibacter arupensis
M. avium = assay: microbe, parasite or virus in culture; format: cell-based; settings: Mycobacterium avium
M. bolletii = assay: microbe, parasite or virus in culture; format: cell-based, Mycobacterium bolletii; settings: Mycobacteroides abscessus
M. chitae = assay: microbe, parasite or virus in culture; format: cell-based, Mycobacterium chitae; settings: Mycolicibacterium chitae
M. colombiense = assay: microbe, parasite or virus in culture; format: cell-based; settings: Mycobacterium colombiense
M. fortuitum = assay: microbe, parasite or virus in culture; format: cell-based, Mycobacterium fortuitum; settings: Mycolicibacterium fortuitum
M. gilvum = assay: microbe, parasite or virus in culture; format: cell-based, Mycobacterium gilvum; settings: Mycolicibacterium gilvum
M. goodie = assay: microbe, parasite or virus in culture; format: cell-based; settings: Mycobacterium
M. gordonae = assay: microbe, parasite or virus in culture; format: cell-based; settings: Mycobacterium gordonae
M. heraklionease = assay: microbe, parasite or virus in culture; format: cell-based; settings: Mycobacterium
M. kansasii = assay: microbe, parasite or virus in culture; format: cell-based; settings: Mycobacterium kansasii
M. kyorinense = assay: microbe, parasite or virus in culture; format: cell-based; settings: Mycobacterium kyorinense
M. marinum = assay: microbe, parasite or virus in culture; format: cell-based; settings: Mycobacterium marinum
M. marseiliense = assay: microbe, parasite or virus in culture; format: cell-based; settings: Mycobacterium
M. massiliense = assay: microbe, parasite or virus in culture; format: cell-based, Mycobacterium massiliense; settings: Mycobacteroides abscessus
M. neoaurum = assay: microbe, parasite or virus in culture; format: cell-based, Mycobacterium neoaurum; settings: Mycolicibacterium neoaurum
M. peregrinum = assay: microbe, parasite or virus in culture; format: cell-based, Mycobacterium peregrinum; settings: Mycolicibacterium peregrinum
M. phlei = assay: microbe, parasite or virus in culture; format: cell-based, Mycobacterium phlei; settings: Mycolicibacterium phlei
M. smegmatis = assay: microbe, parasite or virus in culture; format: cell-based, Mycobacterium smegmatis; settings: Mycolicibacterium smegmatis
M. szulgai = assay: microbe, parasite or virus in culture; format: cell-based; settings: Mycobacterium szulgai
M. xenopi = assay: microbe, parasite or virus in culture; format: cell-based; settings: Mycobacterium xenopi
Acinetobacter baumannii = assay: Broth dilution MIC (CLSI); format: cell-based
From the text: (§1) Bacteria (Acinetobacter baumannii NCCP 14782, Citrobacter freundii NCCP 14766, Enterobacter aerogenes NCCP 14761, Escherichia coli NCCP 14762, Escherichia coli O157 NCCP 14541, Klebsiella pneumoniae NCCP 14764, Proteus mirabilis NCCP 14763, Proteus vulgaris NCCP 14765, Pseudomonas aeruginosa NCCP 14781, Salmonella Enteritidis NCCP 14771, Salmonella Paratyphi A NCCP 14759, Salmonella Typhimurium NCCP 16207, Serratia marcescens NCCP 14770, Shigella boydii NCCP 14745, Shigella dysenteriae NCCP 14746, Shigella flexneri NCCP 14744, Shigella sonnei NCCP 14773, Bacillus subtilis NCCP 11101, Corynebacterium diphtheriae NCCP 10353, Staphylococcus aureus MSSA NCCP 14780, Staphylococcus aureus MRSA NCCP 14769, Staphylococcus epidermidis NCCP 14768, Streptococcus pneumoniae NCCP 14774) and fungi (Aspergillus fumigatus NCCP 22454, Candida albicans NCCP 32557, Cryptococcus neoformans NCCP 32559, Microsporum canis NCCP 22454, Rhizopus oryzae NCCP 22458, Saccharomyces cerevisiae NCCP 32558, Trichophyton rubrum NCCP 22456) strains were obtained from the National Culture Collection for Pathogens (NCCP) (Chungbuk, Korea). The MIC of each agent was determined following the Clinical and Laboratory Standards Institute (CLSI).[40]

Aspergillus fumigatus = assay: Broth dilution MIC (CLSI); format: cell-based
From the text: as §1

Bacillus subtilis = assay: Broth dilution MIC (CLSI); format: cell-based
From the text: as §1

Citrobacter freundii = assay: Broth dilution MIC (CLSI); format: cell-based
From the text: as §1

Enterobacter aerogenes = assay: Broth dilution MIC (CLSI); format: cell-based; settings: Klebsiella aerogenes
From the text: as §1

Escherichia coli O157 = assay: Broth dilution MIC (CLSI); format: cell-based
From the text: as §1

Escherichia coli = assay: Broth dilution MIC (CLSI); format: cell-based
From the text: as §1

Klebsiella pneumoniae = assay: Broth dilution MIC (CLSI); format: cell-based
From the text: as §1

Microsporum canis = assay: Broth dilution MIC (CLSI); format: cell-based
From the text: as §1

Proteus vulgaris = assay: Broth dilution MIC (CLSI); format: cell-based
From the text: as §1

Rhizopus oryzae = assay: Broth dilution MIC (CLSI); format: cell-based; settings: Rhizopus arrhizus
From the text: as §1

Saccharomyces cerevisiae = assay: Broth dilution MIC (CLSI); format: cell-based
From the text: as §1

Salmonella Enteritidis = assay: Broth dilution MIC (CLSI); format: cell-based; settings: Salmonella enterica
From the text: as §1

Salmonella Paratyphi A = assay: Broth dilution MIC (CLSI); format: cell-based; settings: Salmonella enterica
From the text: as §1

Shigella dysenteriae = assay: Broth dilution MIC (CLSI); format: cell-based
From the text: as §1

Shigella sonnei = assay: Broth dilution MIC (CLSI); format: cell-based
From the text: as §1

[2] = tested on: Staphylococcus aureus, MSSA; assay: Broth dilution MIC (CLSI); format: cell-based
From the text: as §1

Streptococcus pneumoniae = assay: Broth dilution MIC (CLSI); format: cell-based
From the text: as §1

[3] = Mycobacterium tuberculosis, H37RV, read-out: MIC

Compound: CCCCOc1ccc2cc(CN3C(=O)CC[C@H]3C(=O)OC)c3cc(OC)c(OC)cc3c2c1 [PP2S, Methyl (S)-1-((3-butoxy-6,7-dimethoxyphenanthren-9-yl)methyl)-5-oxopyrrolidine-2-carboxylate]
- MIC (M. tuberculosis H37Rv): 0.4 µg/mL (≈ 0.859 µM)
- in vitro antitubercular activities (S-form vs R-form) (M. tuberculosis H37Rv): had in vitro antitubercular activities
- MIC (M. tuberculosis H37Rv; [3]): 0.8 µg/mL (≈ 1.72 µM)
- MIC ([1]; TDR-1): 1.6 µg/mL (≈ 3.44 µM)
- MIC ([1]; TDR-2): 0.2 µg/mL (≈ 0.43 µM)
- MIC ([1]; TDR-3): 1.6 µg/mL (≈ 3.44 µM)
- MIC (M. abscessus): > 100 µg/mL
- MIC (M. arupense): > 100 µg/mL
- MIC (M. avium): > 100 µg/mL
- MIC (M. bolletii): > 100 µg/mL
- MIC (M. chitae): > 100 µg/mL
- MIC (M. colombiense): > 100 µg/mL
- MIC (M. fortuitum): > 100 µg/mL
- MIC (M. gilvum): > 100 µg/mL
- MIC (M. goodie): > 100 µg/mL
- MIC (M. gordonae): > 100 µg/mL
- MIC (M. heraklionease): > 100 µg/mL
- MIC (M. kansasii): > 100 µg/mL
- MIC (M. kyorinense): > 100 µg/mL
- MIC (M. marinum): > 100 µg/mL
- MIC (M. marseiliense): > 100 µg/mL
- MIC (M. massiliense): > 100 µg/mL
- MIC (M. neoaurum): > 100 µg/mL
- MIC (M. peregrinum): > 100 µg/mL
- MIC (M. phlei): > 100 µg/mL
- MIC (M. smegmatis): > 100 µg/mL
- MIC (M. szulgai): > 100 µg/mL
- MIC (M. xenopi): > 100 µg/mL
- MIC (Acinetobacter baumannii; read-out: MIC): > 100 µg/mL
- MIC (Aspergillus fumigatus; read-out: MIC): > 100 µg/mL
- MIC (Bacillus subtilis; read-out: MIC): > 100 µg/mL
- MIC (Citrobacter freundii; read-out: MIC): > 100 µg/mL
- MIC (Enterobacter aerogenes; Enterobacter aerogenes, read-out: MIC): > 100 µg/mL
- MIC (Escherichia coli O157; read-out: MIC): > 100 µg/mL
- MIC (Escherichia coli; read-out: MIC): > 100 µg/mL
- MIC (Klebsiella pneumoniae; read-out: MIC): > 100 µg/mL
- MIC (Microsporum canis; read-out: MIC): > 100 µg/mL
- MIC (Proteus vulgaris; read-out: MIC): > 100 µg/mL
- MIC (Rhizopus oryzae; Rhizopus oryzae, read-out: MIC): > 100 µg/mL
- MIC (Saccharomyces cerevisiae; read-out: MIC): > 100 µg/mL
- MIC (Salmonella Enteritidis; Salmonella Enteritidis, read-out: MIC): > 100 µg/mL
- MIC (Salmonella Paratyphi A; Salmonella Paratyphi A, read-out: MIC): > 100 µg/mL
- MIC (Shigella dysenteriae; read-out: MIC): > 100 µg/mL
- MIC (Shigella sonnei; read-out: MIC): > 100 µg/mL
- MIC ([2]; read-out: MIC): > 100 µg/mL
- MIC (Streptococcus pneumoniae; read-out: MIC): > 100 µg/mL

Compound: CO[C@H]1/C=C/O[C@@]2(C)Oc3c(C)c(O)c4c(O)c(c(/C=N/N5CCN(C)CC5)c(O)c4c3C2=O)NC(=O)/C(C)=C\C=C\[C@H](C)[C@H](O)[C@@H](C)[C@@H](O)[C@@H](C)[C@H](OC(C)=O)[C@@H]1C [RIF, rifampicin, reference compound]
- MIC (M. tuberculosis H37Rv; [3]): 0.1 µg/mL (≈ 0.122 µM)
- MIC ([1]; TDR-1): > 100 µg/mL
- MIC ([1]; TDR-2): > 100 µg/mL
- MIC ([1]; TDR-3): > 100 µg/mL
- MIC (M. abscessus): > 100 µg/mL
- MIC (M. arupense): 0.1 µg/mL (≈ 0.122 µM)
- MIC (M. avium): 1.6 µg/mL (≈ 1.94 µM)
- MIC (M. bolletii): > 100 µg/mL
- MIC (M. chitae): 6.3 µg/mL (≈ 7.66 µM)
- MIC (M. colombiense): 0.2 µg/mL (≈ 0.243 µM)
- MIC (M. fortuitum): 0.2 µg/mL (≈ 0.243 µM)
- MIC (M. gilvum): 0.2 µg/mL (≈ 0.243 µM)
- MIC (M. goodie): 100 µg/mL (≈ 122 µM)
- MIC (M. gordonae): 3.1 µg/mL (≈ 3.77 µM)
- MIC (M. heraklionease): 0.2 µg/mL (≈ 0.243 µM)
- MIC (M. kansasii): < 0.1 µg/mL
- MIC (M. kyorinense): 50 µg/mL (≈ 60.8 µM)
- MIC (M. marinum): < 0.1 µg/mL
- MIC (M. marseiliense): > 100 µg/mL
- MIC (M. massiliense): 0.2 µg/mL (≈ 0.243 µM)
- MIC (M. neoaurum): 0.2 µg/mL (≈ 0.243 µM)
- MIC (M. peregrinum): 25 µg/mL (≈ 30.4 µM)
- MIC (M. phlei): 25 µg/mL (≈ 30.4 µM)
- MIC (M. smegmatis): 25 µg/mL (≈ 30.4 µM)
- MIC (M. szulgai): < 0.1 µg/mL
- MIC (M. xenopi): 0.2 µg/mL (≈ 0.243 µM)
- MIC (Acinetobacter baumannii): 3.1 µg/mL (≈ 3.77 µM)
- MIC (Aspergillus fumigatus): > 100 µg/mL
- MIC (Bacillus subtilis): < 0.1 µg/mL
- MIC (Citrobacter freundii): 25 µg/mL (≈ 30.4 µM)
- MIC (Enterobacter aerogenes): 6.3 µg/mL (≈ 7.66 µM)
- MIC (Escherichia coli O157): 3.1 µg/mL (≈ 3.77 µM)
- MIC (Escherichia coli): 6.3 µg/mL (≈ 7.66 µM)
- MIC (Klebsiella pneumoniae): 6.3 µg/mL (≈ 7.66 µM)
- MIC (Microsporum canis): > 100 µg/mL
- MIC (Proteus vulgaris): 6.3 µg/mL (≈ 7.66 µM)
- MIC (Rhizopus oryzae): > 100 µg/mL
- MIC (Saccharomyces cerevisiae): > 100 µg/mL
- MIC (Salmonella Enteritidis; ENTERITIDIS): 12.5 µg/mL (≈ 15.2 µM)
- MIC (Salmonella Paratyphi A; PARATYPHI): 12.5 µg/mL (≈ 15.2 µM)
- MIC (Shigella dysenteriae): 1.6 µg/mL (≈ 1.94 µM)
- MIC (Shigella sonnei): 3.1 µg/mL (≈ 3.77 µM)
- MIC [2]: 0.05 µg/mL (≈ 0.0608 µM)
- MIC (Streptococcus pneumoniae): 0.05 µg/mL (≈ 0.0608 µM)
